Data reported in the CheMixHub ionic liquid set.
± gives the uncertainty stated by the source.

Assay: xn = mol fraction of the nth substance listed

## CCOP(=O)([O-])OCC.CC[n+]1ccn(C)c1 + CCO
293.15 K, 100 kPa, x1 = 0.7003
  viscosity: 178 ± 12 mPa·s
293.15 K, 100 kPa, x1 = 0.8985
  viscosity: 379 ± 27 mPa·s
293.15 K, 100 kPa, x1 = 1
  viscosity: 566 ± 43 mPa·s
298.15 K, 100 kPa, x1 = 0.4007
  viscosity: 29.8 ± 1.8 mPa·s
298.15 K, 100 kPa, x1 = 0.7003
  viscosity: 133.2 ± 8.5 mPa·s
303.15 K, 100 kPa, x1 = 0.4007
  viscosity: 24.8 ± 1.5 mPa·s
303.15 K, 100 kPa, x1 = 0.8
  viscosity: 139.2 ± 8.9 mPa·s
303.15 K, 100 kPa, x1 = 0.8985
  viscosity: 197 ± 13 mPa·s
308.15 K, 100 kPa, x1 = 0.7003
  viscosity: 79.6 ± 4.9 mPa·s
313.15 K, 100 kPa, x1 = 1
  viscosity: 155 ± 10 mPa·s
318.15 K, 100 kPa, x1 = 0.8985
  viscosity: 86.8 ± 5.4 mPa·s
323.15 K, 100 kPa, x1 = 0.7003
  viscosity: 41.1 ± 2.5 mPa·s
328.15 K, 100 kPa, x1 = 0.1002
  viscosity: 2.16 ± 0.13 mPa·s
328.15 K, 100 kPa, x1 = 0.1992
  viscosity: 4.29 ± 0.26 mPa·s
328.15 K, 100 kPa, x1 = 0.5993
  viscosity: 24.4 ± 1.5 mPa·s
333.15 K, 100 kPa, x1 = 0.4007
  viscosity: 10.87 ± 0.66 mPa·s
338.15 K, 100 kPa, x1 = 0.7003
  viscosity: 23.7 ± 1.4 mPa·s

## CCCC[N+]1(C)CCCC1.O=S(=O)([N-]S(=O)(=O)C(F)(F)F)C(F)(F)F + CCOC(=O)OCC
293.15 K, 100 kPa, x1 = 0.1001
  electrical conductivity: 0.343 ± 0.011 S/m
  viscosity: 1.84 ± 0.06 mPa·s
293.15 K, 100 kPa, x1 = 0.2
  electrical conductivity: 0.526 ± 0.016 S/m
  viscosity: 3.84 ± 0.12 mPa·s
293.15 K, 100 kPa, x1 = 0.4998
  electrical conductivity: 0.42 ± 0.013 S/m
  viscosity: 18.14 ± 0.56 mPa·s
293.15 K, 100 kPa, x1 = 0.8934
  electrical conductivity: 0.23 ± 0.007 S/m
  viscosity: 72.5 ± 2.2 mPa·s
303.15 K, 100 kPa, x1 = 0.2
  electrical conductivity: 0.648 ± 0.02 S/m
  viscosity: 3.18 ± 0.1 mPa·s
303.15 K, 100 kPa, x1 = 0.25
  electrical conductivity: 0.731 ± 0.022 S/m
308.15 K, 100 kPa, x1 = 0.4998
  electrical conductivity: 0.705 ± 0.021 S/m
  viscosity: 11.73 ± 0.36 mPa·s
308.15 K, 100 kPa, x1 = 0.8934
  electrical conductivity: 0.454 ± 0.014 S/m
  viscosity: 38.8 ± 1.2 mPa·s
313.15 K, 100 kPa, x1 = 0.1001
  electrical conductivity: 0.465 ± 0.015 S/m
  viscosity: 1.22 ± 0.04 mPa·s
313.15 K, 100 kPa, x1 = 0.25
  electrical conductivity: 0.9 ± 0.027 S/m
323.15 K, 100 kPa, x1 = 0.1001
  electrical conductivity: 0.539 ± 0.017 S/m
  viscosity: 1 ± 0.03 mPa·s
323.15 K, 100 kPa, x1 = 0.8006
  electrical conductivity: 0.793 ± 0.024 S/m
  viscosity: 18.67 ± 0.57 mPa·s

## CCCCCCCCn1cc[n+](C)c1.F[B-](F)(F)F + CCOC(C)=O
298.15 K, 101 kPa, x2 = 0.204
  viscosity: 115.5 ± 4.4 mPa·s
298.15 K, 101 kPa, x2 = 0.3986
  viscosity: 41.35 ± 0.54 mPa·s
298.15 K, 101 kPa, x2 = 0.4461
  viscosity: 31.64 ± 0.41 mPa·s
298.15 K, 101 kPa, x2 = 0.5984
  viscosity: 12.72 ± 0.17 mPa·s
298.15 K, 101 kPa, x2 = 0.624
  viscosity: 10.93 ± 0.14 mPa·s
298.15 K, 101 kPa, x2 = 0.8017
  viscosity: 3.1 ± 0.05 mPa·s
298.15 K, 101 kPa, x2 = 0.953
  viscosity: 0.74 ± 0.01 mPa·s

## CCCC[n+]1ccn(C)c1.O=S(=O)([O-])C(F)(F)F + CCOC(C)=O
298.15 K, 100 kPa, x1 = 0.6095
  viscosity: 28.3 ± 5.7 mPa·s
298.15 K, 100 kPa, x1 = 0.8932
  viscosity: 55 ± 11 mPa·s
303.15 K, 100 kPa, x1 = 0.3978
  viscosity: 13.4 ± 2.7 mPa·s
303.15 K, 100 kPa, x1 = 1
  viscosity: 67 ± 13 mPa·s
313.15 K, 100 kPa, x1 = 0.0991
  viscosity: 0.84 ± 0.17 mPa·s
313.15 K, 100 kPa, x1 = 1
  viscosity: 43.7 ± 8.8 mPa·s
318.15 K, 100 kPa, x1 = 0.1916
  viscosity: 2.57 ± 0.52 mPa·s
318.15 K, 100 kPa, x1 = 1
  viscosity: 36.3 ± 7.3 mPa·s
323.15 K, 100 kPa, x1 = 0.7987
  viscosity: 18.2 ± 3.7 mPa·s
323.15 K, 100 kPa, x1 = 0.8932
  viscosity: 22.4 ± 4.5 mPa·s

## CC[N+](C)(CC)CCOC.O=S(=O)([N-]S(=O)(=O)C(F)(F)F)C(F)(F)F + CC[N+](C)(CC)CCOC.F[B-](F)(F)F
298.15 K, 100 kPa, x1 = 1
  electrical conductivity: 0.311 ± 0.019 S/m
